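Grown in 96-well plates, cells were treated for 48 hours with each compound at five concentrations. Insufficient inhibition: endpoint recorded as highest concentration tested. At the GI50, growth is halved. TGI marks complete inhibition of growth.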
Columns and labels:
Test in all cases: DTP human tumour cell line panel, 48 h
MALME-3M melanoma = system: MALME-3M melanoma
NCI-H460 lung = system: NCI-H460 lung
OVCAR-4 ovarian = system: OVCAR-4 ovarian
SK-MEL-28 melanoma = system: SK-MEL-28 melanoma
SK-OV-3 ovarian = system: SK-OV-3 ovarian
TK-10 renal = system: TK-10 renal
KM12 colon = system: KM12 colon
NCI-H226 lung = system: NCI-H226 lung
RPMI-8226 leukemia = system: RPMI-8226 leukemia
CCRF-CEM leukemia = system: CCRF-CEM leukemia

`CCOC(=O)C1(Cc2ccccc2)CCCCCN1` (centres undefined) was tested, and the TGI (MALME-3M melanoma) was > 100 µM, the TGI (NCI-H460 lung) was > 100 µM and the TGI (OVCAR-4 ovarian) was > 100 µM. For the same molecule, the TGI (SK-MEL-28 melanoma) was > 100 µM, the TGI (SK-OV-3 ovarian) was > 100 µM and the TGI (TK-10 renal) was > 100 µM.
For `COc1cc(/C=C2\CC3C4CC=C5C[C@@H](OC(C)=O)CC[C@]5(C)C4CC[C@]3(C)C2=O)ccc1OCCCn1ccnc1` (some centres undefined), the GI50 (KM12 colon) was 8.75 µM, the TGI (KM12 colon) was 16.2 µM and the GI50 (NCI-H226 lung) was 8.26 µM. The TGI (NCI-H226 lung) was 17.8 µM, the GI50 (NCI-H460 lung) was 9.32 µM and the TGI (NCI-H460 lung) was 21.1 µM. For the same molecule, the GI50 (RPMI-8226 leukemia) was 9.66 µM, the TGI (RPMI-8226 leukemia) was 24.2 µM and the GI50 (SK-MEL-28 melanoma) was 16 µM. For the same molecule, the TGI (SK-MEL-28 melanoma) was > 50 µM, the GI50 (TK-10 renal) was 7.08 µM and the TGI (TK-10 renal) was 17.3 µM.
`NC(=O)c1cc(Br)cc(C2CCCCC2)c1O` was tested, and the GI50 (CCRF-CEM leukemia) was 15.1 µM, the TGI (CCRF-CEM leukemia) was 39.8 µM and the GI50 (KM12 colon) was 11.7 µM. For the same molecule, the TGI (KM12 colon) was 24.5 µM, the GI50 (MALME-3M melanoma) was 19.6 µM and the TGI (MALME-3M melanoma) was 35.9 µM. For the same molecule, the GI50 (NCI-H226 lung) was 13.6 µM, the TGI (NCI-H226 lung) was 31 µM and the GI50 (NCI-H460 lung) was 15.6 µM. It also gave a TGI (NCI-H460 lung) of 30.5 µM, a GI50 (OVCAR-4 ovarian) of 12.9 µM and a TGI (OVCAR-4 ovarian) of 25.6 µM. It also gave a GI50 (SK-MEL-28 melanoma) of 14 µM, a TGI (SK-MEL-28 melanoma) of 27.3 µM and a GI50 (SK-OV-3 ovarian) of 17.2 µM. It also gave a TGI (SK-OV-3 ovarian) of 31.1 µM, a GI50 (TK-10 renal) of 13.4 µM and a TGI (TK-10 renal) of 28.1 µM.
`CN1NC2(CCCCC2)ON=C1c1ccccc1` was tested, and the TGI (CCRF-CEM leukemia) was > 100 µM, the TGI (KM12 colon) was > 100 µM and the TGI (MALME-3M melanoma) was > 100 µM. For the same molecule, the TGI (NCI-H226 lung) was > 100 µM, the TGI (NCI-H460 lung) was > 100 µM and the TGI (OVCAR-4 ovarian) was > 100 µM. For the same molecule, the TGI (SK-MEL-28 melanoma) was > 100 µM, the TGI (SK-OV-3 ovarian) was > 100 µM and the TGI (TK-10 renal) was > 100 µM.
In the case of `COCC(=O)CP(=O)(OC)OC`, the TGI (CCRF-CEM leukemia) is reported as > 100 µM, the TGI (KM12 colon) is reported as > 100 µM and the TGI (MALME-3M melanoma) is reported as > 100 µM. For the same molecule, the TGI (NCI-H460 lung) was > 100 µM, the TGI (OVCAR-4 ovarian) was > 100 µM and the TGI (RPMI-8226 leukemia) was > 100 µM. For the same molecule, the TGI (SK-MEL-28 melanoma) was > 100 µM, the TGI (SK-OV-3 ovarian) was > 100 µM and the TGI (TK-10 renal) was > 100 µM.
`ClC(Cl)c1nc(-c2cccnc2)n2nc(-c3ccccc3)cc2n1` was tested, and the GI50 (CCRF-CEM leukemia) was 2.32 µM, the TGI (CCRF-CEM leukemia) was > 100 µM and the GI50 (MALME-3M melanoma) was 1.59 µM. For the same molecule, the TGI (MALME-3M melanoma) was 3.25 µM, the GI50 (NCI-H460 lung) was 1.09 µM and the TGI (NCI-H460 lung) was 4.21 µM. For the same molecule, the GI50 (OVCAR-4 ovarian) was 2.03 µM, the TGI (OVCAR-4 ovarian) was 5.78 µM and the GI50 (SK-MEL-28 melanoma) was 1.71 µM. The TGI (SK-MEL-28 melanoma) was 3.51 µM, the GI50 (SK-OV-3 ovarian) was 1.78 µM and the TGI (SK-OV-3 ovarian) was 5.02 µM. It also gave a GI50 (TK-10 renal) of 1.84 µM and a TGI (TK-10 renal) of 6.49 µM.
With `C1CSCCCSCCSCCCSC1` the TGI (NCI-H226 lung) was > 100 µM, the TGI (NCI-H460 lung) was > 100 µM and the TGI (OVCAR-4 ovarian) was > 100 µM. For the same molecule, the TGI (RPMI-8226 leukemia) was > 100 µM, the TGI (SK-MEL-28 melanoma) was > 100 µM and the TGI (SK-OV-3 ovarian) was > 100 µM. For the same molecule, the TGI (TK-10 renal) was > 100 µM.
`Cc1nc2c(n1C(C)(C)C)C(=O)c1ccccc1C2=O` was tested, and the TGI (CCRF-CEM leukemia) was > 100 µM, the TGI (KM12 colon) was > 100 µM and the TGI (MALME-3M melanoma) was > 100 µM. The TGI (NCI-H226 lung) was > 100 µM, the TGI (NCI-H460 lung) was > 100 µM and the TGI (OVCAR-4 ovarian) was > 100 µM. The TGI (SK-MEL-28 melanoma) was > 100 µM, the TGI (SK-OV-3 ovarian) was > 100 µM and the TGI (TK-10 renal) was > 100 µM.
`CCOC(=O)c1[nH]c(-c2ccc(Cl)cc2)cc1-c1cccnc1` was tested, and the GI50 (CCRF-CEM leukemia) was 0.391 µM, the TGI (CCRF-CEM leukemia) was > 100 µM and the GI50 (KM12 colon) was 0.595 µM. The TGI (KM12 colon) was > 100 µM, the GI50 (NCI-H226 lung) was 17.3 µM and the TGI (NCI-H226 lung) was > 100 µM. For the same molecule, the GI50 (NCI-H460 lung) was 0.449 µM, the TGI (NCI-H460 lung) was > 100 µM and the GI50 (OVCAR-4 ovarian) was 10.2 µM. For the same molecule, the TGI (OVCAR-4 ovarian) was > 100 µM, the GI50 (SK-MEL-28 melanoma) was 0.982 µM and the TGI (SK-MEL-28 melanoma) was > 100 µM. The GI50 (SK-OV-3 ovarian) was 1.05 µM, the TGI (SK-OV-3 ovarian) was > 100 µM and the GI50 (TK-10 renal) was 0.972 µM. For the same molecule, the TGI (TK-10 renal) was > 100 µM.
`CC(C)(C)NCc1cc(C(C)(C)C)cc(-c2ccc(Cl)cc2)c1O` was tested, and the TGI (KM12 colon) was 27.1 µM, the TGI (MALME-3M melanoma) was 27.8 µM and the TGI (NCI-H460 lung) was 34.8 µM. For the same molecule, the TGI (OVCAR-4 ovarian) was 41.3 µM, the TGI (RPMI-8226 leukemia) was 40.5 µM and the TGI (SK-MEL-28 melanoma) was 28.2 µM. For the same molecule, the TGI (SK-OV-3 ovarian) was 31.5 µM and the TGI (TK-10 renal) was 26 µM.
Molecule `O=C(Nc1ccc(Cl)cc1)c1ccc(NC2=C(Cl)C(=O)N(Cc3ccccc3)C2=O)cc1` has a GI50 (KM12 colon) of 21.1 µM, a TGI (KM12 colon) of 56.7 µM and a GI50 (NCI-H226 lung) of 11.2 µM. For the same molecule, the TGI (NCI-H226 lung) was 28.4 µM, the GI50 (NCI-H460 lung) was 25.1 µM and the TGI (NCI-H460 lung) was > 100 µM. It also gave a GI50 (OVCAR-4 ovarian) of 18.3 µM, a TGI (OVCAR-4 ovarian) of 43.4 µM and a GI50 (RPMI-8226 leukemia) of 2.7 µM. The TGI (RPMI-8226 leukemia) was 12.4 µM, the GI50 (SK-MEL-28 melanoma) was 17.4 µM and the TGI (SK-MEL-28 melanoma) was 37.9 µM. For the same molecule, the GI50 (SK-OV-3 ovarian) was 32.9 µM and the TGI (SK-OV-3 ovarian) was > 100 µM.
For `COC1OC(CO)C(O)C(O)C1Br` (centres undefined), the TGI (CCRF-CEM leukemia) was > 100 µM, the TGI (KM12 colon) was > 100 µM and the TGI (MALME-3M melanoma) was > 100 µM. For the same molecule, the TGI (NCI-H460 lung) was > 100 µM, the TGI (OVCAR-4 ovarian) was > 100 µM and the TGI (RPMI-8226 leukemia) was > 100 µM. The TGI (SK-MEL-28 melanoma) was > 100 µM and the TGI (TK-10 renal) was > 100 µM.
In the case of `O=C1C[C@@H]2C(COC(=O)c3ccccc3)N(OCc3ccccc3)C[C@@H]2O1` (some centres undefined), the TGI (CCRF-CEM leukemia) is reported as > 100 µM, the TGI (KM12 colon) is reported as > 100 µM and the TGI (MALME-3M melanoma) is reported as > 100 µM. The TGI (NCI-H226 lung) was > 100 µM, the TGI (NCI-H460 lung) was > 100 µM and the TGI (OVCAR-4 ovarian) was > 100 µM. The TGI (SK-MEL-28 melanoma) was > 100 µM, the TGI (SK-OV-3 ovarian) was > 100 µM and the TGI (TK-10 renal) was > 100 µM.
For `N=c1nnc(=O)c2c(s1)-n1ncc(C(=O)O)c1NN2`, the TGI (KM12 colon) was > 100 µM, the TGI (MALME-3M melanoma) was > 100 µM and the TGI (OVCAR-4 ovarian) was > 100 µM. For the same molecule, the TGI (RPMI-8226 leukemia) was > 100 µM, the TGI (SK-MEL-28 melanoma) was > 100 µM and the TGI (SK-OV-3 ovarian) was > 100 µM. The TGI (TK-10 renal) was > 100 µM.
In the case of `Cc1ccc(S(=O)(=O)NC(=O)NC23CC4CC(CC(F)(C4)C2)C3)cc1`, the TGI (CCRF-CEM leukemia) is reported as > 100 µM, the TGI (KM12 colon) is reported as > 100 µM and the TGI (MALME-3M melanoma) is reported as > 100 µM. For the same molecule, the TGI (NCI-H460 lung) was > 100 µM, the TGI (RPMI-8226 leukemia) was > 100 µM and the TGI (SK-MEL-28 melanoma) was > 100 µM. The TGI (SK-OV-3 ovarian) was > 100 µM and the TGI (TK-10 renal) was > 100 µM.
With `Cc1c(C(=O)NCCO)[n+](=O)c2cc(Cl)ccc2n1[O-]` the TGI (CCRF-CEM leukemia) was > 100 µM, the TGI (KM12 colon) was > 100 µM and the TGI (MALME-3M melanoma) was > 100 µM. The TGI (NCI-H460 lung) was > 100 µM, the TGI (OVCAR-4 ovarian) was > 100 µM and the TGI (RPMI-8226 leukemia) was > 100 µM. The TGI (SK-MEL-28 melanoma) was > 100 µM, the TGI (SK-OV-3 ovarian) was > 100 µM and the TGI (TK-10 renal) was > 100 µM.
With `CC1=C[C@H]2c3c(c(O)c(O)c4oc5ccccc5c(=O)c34)[C@H](c3cc(O)c(O)c4oc5ccccc5c(=O)c34)[C@H]2C(C)(C)C1` the GI50 (CCRF-CEM leukemia) was 0.609 µM, the TGI (CCRF-CEM leukemia) was > 100 µM and the GI50 (KM12 colon) was 1.07 µM. It also gave a TGI (KM12 colon) of 9.53 µM, a GI50 (MALME-3M melanoma) of 2.3 µM and a TGI (MALME-3M melanoma) of 11.1 µM. It also gave a GI50 (NCI-H460 lung) of 0.22 µM, a TGI (NCI-H460 lung) of 1.83 µM and a GI50 (OVCAR-4 ovarian) of 0.786 µM. It also gave a TGI (OVCAR-4 ovarian) of 20.2 µM, a GI50 (SK-MEL-28 melanoma) of 1.86 µM and a TGI (SK-MEL-28 melanoma) of 13.3 µM. The GI50 (SK-OV-3 ovarian) was 2.5 µM, the TGI (SK-OV-3 ovarian) was 14.2 µM and the GI50 (TK-10 renal) was 2.19 µM. For the same molecule, the TGI (TK-10 renal) was 15.3 µM.

Source: PubChem BioAssay (NCI)
